Data from patent US6737383B1, “Herbicidal oxadiazolidines” (priority 1999, dated 2004).

Legend:
[1] = test system: blackgrass; test: Test B pre/postemergence blackgrass; format: in vivo, Alopecurus myosuroides
How it was run: (§1)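 Test chemicals in a non-phytotoxic solvent mixture with surfactant were sprayed preemergence onto planted seeds and postemergence onto plants 2 to 18 cm tall (1- to 4-leaf stage). After twelve to sixteen days in a greenhouse, injury was visually rated against untreated controls from 0 (no effect) to 10 (complete control).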

[2] = test system: surinam grass; test: Test B pre/postemergence surinam grass; format: in vivo, Brachiaria decumbens
How it was run: as §1

[3] = test system: cocklebur; test: Test B pre/postemergence cocklebur; format: in vivo, Xanthium strumarium
How it was run: as §1

[4] = test system: corn; test: Test B pre/postemergence corn; format: in vivo, Zea mays
How it was run: as §1

[5] = test system: crabgrass; test: Test B pre/postemergence crabgrass; format: in vivo, Digitaria sanguinalis
How it was run: as §1

[6] = test system: giant foxtail; test: Test B pre/postemergence giant foxtail; format: in vivo, Setaria faberii
How it was run: as §1

[7] = test system: morningglory; test: Test B pre/postemergence morningglory; format: in vivo, Ipomoea hederacea; details: for Plant response rating, Morningglory: scale of 0 to 10 where 0 is no effect and 10 is complete control
How it was run: as §1

[8] = test system: pigweed; test: Test B pre/postemergence pigweed; format: in vivo, Amaranthus retroflexus; details: for Plant response rating, Redroot pigweed: scale of 0 to 10 where 0 is no effect and 10 is complete control
How it was run: as §1

[9] = test system: rape; test: Test B pre/postemergence rape; format: in vivo, Brassica napus; details: for Plant response rating, Rape: scale of 0 to 10 where 0 is no effect and 10 is complete control
How it was run: as §1

[10] = test system: soybean; test: Test B pre/postemergence soybean; format: in vivo, Glycine max; details: for Plant response rating, Soybean: scale of 0 to 10 where 0 is no effect and 10 is complete control
How it was run: as §1

[11] = test system: sugar beet; test: Test B pre/postemergence sugar beet; format: in vivo, Beta vulgaris; details: for Plant response rating, Sugarbeets: scale of 0 to 10 where 0 is no effect and 10 is complete control
How it was run: as §1

[12] = test system: velvetleaf; test: Test B pre/postemergence velvetleaf; format: in vivo, Abutilon theophrasti; details: for Plant response rating, Velvetleaf: scale of 0 to 10 where 0 is no effect and 10 is complete control
How it was run: as §1

[13] = test system: wheat; test: Test B pre/postemergence wheat; format: in vivo, Triticum aestivum; details: for Plant response rating, Wheat: scale of 0 to 10 where 0 is no effect and 10 is complete control
How it was run: as §1

[14] = test system: wild oat; test: Test B pre/postemergence wild oat; format: in vivo, Avena fatua; details: for Plant response rating, Wild oats: scale of 0 to 10 where 0 is no effect and 10 is complete control
How it was run: as §1

[15] = test system: purple nutsedge; test: Test B pre/postemergence purple nutsedge; format: in vivo, Cyperus rotundus; details: for Plant response rating, Nutsedge: scale of 0 to 10 where 0 is no effect and 10 is complete control
How it was run: as §1

[16] = test system: rice; test: Test B flood test rice; format: in vivo, Oryza sativa
How it was run: (§2)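 Read-out is a visual response score from 0 (no effect) to 10 (complete control), assigned by comparison with untreated controls. Treatment was applied at the 2-leaf stage, and plants stayed in the greenhouse for twelve to sixteen days before scoring.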

[17] = test system: smallflower flatsedge; test: Test B flood test smallflower flatsedge; format: in vivo, Cyperus difformis
How it was run: as §2

[18] = test system: duck salad; test: Test B flood test duck salad; format: in vivo, Heteranthera limosa
How it was run: as §2

[19] = test system: bamyardgrass; test: Test B flood test barnyardgrass; format: in vivo, Echinochloa crus-galli
How it was run: as §2

[20] = Postemergence, Rate 250 g/ha, scale 0 to 10
[21] = Postemergence, Rate 500 g/ha, scale of 0 to 10 where 0 is no effect and 10 is complete control
[22] = Preemergence, Rate 62 g/ha, scale of 0 to 10 where 0 is no effect and 10 is complete control
[23] = Preemergence, Rate 125 g/ha, scale of 0 to 10 where 0 is no effect and 10 is complete control
[24] = Preemergence, Rate 250 g/ha, scale 0 to 10, 0 is no effect, 10 is complete control
[25] = Preemergence, Rate 500 g/ha, scale 0 to 10, 0 is no effect, 10 is complete control
[26] = Rate 62 g/ha, Postemergence, scale 0 to 10, 0 no effect, 10 complete control
[27] = Rate 125 g/ha, Postemergence, scale 0 to 10, 0 is no effect, 10 is complete control
[28] = Rate 62 g/ha, flood test species, Pre-emergence, visual evaluation after twelve to sixteen days
[29] = Rate 125 g/ha, under heading Pre-emergence, flood test species, visual evaluation after twelve to sixteen days
[30] = Rate 250 g/ha, Pre-emergence (flood test species), scale 0 to 10, 0 is no effect, 10 is complete control
[31] = Rate 500 g/ha, Pre-emergence, flood test species, scale 0 to 10 (0 no effect, 10 complete control)

## CC(C)N(C(=O)n1oc(=O)n(C(C)CCl)c1=O)c1ccc(Cl)cc1 (stereo not drawn) [Compound 456]
[1]; [20]
  Blackgrass plant response rating: 4
[1]; [21]
  Blackgrass plant response rating: 8
[1]; [22]
  Plant response rating, Blackgrass: 0
[1]; [23]
  Plant response rating, Blackgrass: 2
[1]; [24]
  Blackgrass plant response rating: 3
[1]; [25]
  Blackgrass plant response rating: 6
[1]; [26]
  Blackgrass plant response rating: 4
[1]; [27]
  Blackgrass plant response rating: 4
[2]; Postemergence, Rate 250 g/ha, scale 0 to 10, 0 no effect, 10 complete control
  B. signalgrass plant response rating: 0
[2]; [21]
  B. signalgrass plant response rating: 2
[2]; [22]
  Plant response rating, B. signalgrass: 0
[2]; [23]
  Plant response rating, B. signalgrass: 0
[2]; [24]
  B. signalgrass plant response rating: 0
[2]; [25]
  B. signalgrass plant response rating: 2
[2]; [26]
  B. signalgrass plant response rating: 0
[2]; [27]
  B. signalgrass plant response rating: 0
[3]; [20]
  Cocklebur plant response rating: 0
[3]; [21]
  Cocklebur plant response rating: 2
[3]; [22]
  Plant response rating, Cocklebur: 0
[3]; [23]
  Plant response rating, Cocklebur: 0
[3]; [24]
  Cocklebur plant response rating: 0
[3]; [25]
  Cocklebur plant response rating: 0
[3]; [26]
  Cocklebur plant response rating: 0
[3]; [27]
  Cocklebur plant response rating: 0
[4]; [20]
  Corn plant response rating: 0
[4]; [21]
  Corn plant response rating: 0
[4]; [22]
  Plant response rating, Corn: 0
[4]; [23]
  Plant response rating, Corn: 0
[4]; [24]
  Corn plant response rating: 0
[4]; [25]
  Corn plant response rating: 0
[4]; [26]
  Corn plant response rating: 0
[4]; [27]
  Corn plant response rating: 0
[5]; [20]
  Crabgrass plant response rating: 4
[5]; [21]
  Crabgrass plant response rating: 7
[5]; [22]
  Plant response rating, Crabgrass: 6
[5]; [23]
  Plant response rating, Crabgrass: 6
[5]; [24]
  Crabgrass plant response rating: 8
[5]; [25]
  Crabgrass plant response rating: 9
[5]; [26]
  Crabgrass plant response rating: 4
[6]; [20]
  Giant foxtail plant response rating: 3
[6]; [21]
  Giant foxtail plant response rating: 8
[6]; [22]
  Plant response rating, Giant foxtail: 5
[6]; [23]
  Plant response rating, Giant foxtail: 10
[6]; [24]
  Giant foxtail plant response rating: 10
[6]; [25]
  Giant foxtail plant response rating: 10
[6]; [26]
  Giant foxtail plant response rating: 2
[6]; [27]
  Giant foxtail plant response rating: 2
[7]; [20]
  Morningglory plant response rating: 5
[7]; Preemergence, Rate 62 g/ha
  Plant response rating, Morningglory: 0
[7]; Preemergence, Rate 125 g/ha
  Plant response rating, Morningglory: 0
[7]; [24]
  Morningglory plant response rating: 3
[7]; [25]
  Morningglory plant response rating: 3
[7]; [26]
  Morningglory plant response rating: 3
[7]; [27]
  Morningglory plant response rating: 3
[8]; [20]
  Redroot pigweed plant response rating: 3
[8]; Preemergence, Rate 62 g/ha
  Plant response rating, Redroot pigweed: 0
[8]; Preemergence, Rate 125 g/ha
  Plant response rating, Redroot pigweed: 2
[8]; [24]
  Redroot pigweed plant response rating: 3
[8]; [25]
  Redroot pigweed plant response rating: 5
[8]; [26]
  Redroot pigweed plant response rating: 0
[8]; [27]
  Redroot pigweed plant response rating: 0
[9]; [20]
  Rape plant response rating: 0
[9]; Preemergence, Rate 62 g/ha
  Plant response rating, Rape: 0
[9]; Preemergence, Rate 125 g/ha
  Plant response rating, Rape: 0
[9]; [24]
  Rape plant response rating: 0
[9]; [25]
  Rape plant response rating: 0
[9]; [26]
  Rape plant response rating: 0
[9]; [27]
  Rape plant response rating: 0
[10]; [20]
  Soybean plant response rating: 2
[10]; Preemergence, Rate 62 g/ha
  Plant response rating, Soybean: 0
[10]; Preemergence, Rate 125 g/ha
  Plant response rating, Soybean: 0
[10]; [24]
  Soybean plant response rating: 0
[10]; [25]
  Soybean plant response rating: 0
[10]; [26]
  Soybean plant response rating: 1
[10]; [27]
  Soybean plant response rating: 3
[11]; [20]
  Sugarbeets plant response rating: 0
[11]; Preemergence, Rate 62 g/ha
  Plant response rating, Sugarbeets: 0
[11]; Preemergence, Rate 125 g/ha
  Plant response rating, Sugarbeets: 2
[11]; [24]
  Sugarbeets plant response rating: 2
[11]; [25]
  Sugarbeets plant response rating: 3
[11]; [26]
  Sugarbeets plant response rating: 0
[11]; [27]
  Sugarbeets plant response rating: 0
[12]; [20]
  Velvetleaf plant response rating: 0
[12]; Preemergence, Rate 62 g/ha
  Plant response rating, Velvetleaf: 0
[12]; Preemergence, Rate 125 g/ha
  Plant response rating, Velvetleaf: 0
[12]; [24]
  Velvetleaf plant response rating: 1
[12]; [25]
  Velvetleaf plant response rating: 2
[12]; [26]
  Velvetleaf plant response rating: 0
[12]; [27]
  Velvetleaf plant response rating: 0
[13]; [20]
  Wheat plant response rating: 0
[13]; Preemergence, Rate 62 g/ha
  Plant response rating, Wheat: 0
[13]; Preemergence, Rate 125 g/ha
  Plant response rating, Wheat: 0
[13]; [24]
  Wheat plant response rating: 0
[13]; [25]
  Wheat plant response rating: 0
[13]; [26]
  Wheat plant response rating: 0
[13]; [27]
  Wheat plant response rating: 0
[14]; [20]
  Wild oats plant response rating: 0
[14]; Preemergence, Rate 62 g/ha
  Plant response rating, Wild oats: 0
[14]; Preemergence, Rate 125 g/ha
  Plant response rating, Wild oats: 0
[14]; [24]
  Wild oats plant response rating: 2
[14]; [25]
  Wild oats plant response rating: 3
[14]; [26]
  Wild oats plant response rating: 0
[14]; [27]
  Wild oats plant response rating: 0
[15]; [20]
  Nutsedge plant response rating: 0
[15]; Preemergence, Rate 62 g/ha
  Plant response rating, Nutsedge: 0
[15]; Preemergence, Rate 125 g/ha
  Plant response rating, Nutsedge: 0
[15]; [24]
  Nutsedge plant response rating: 0
[15]; [25]
  Nutsedge plant response rating: 0
[15]; [26]
  Nutsedge plant response rating: 0
[15]; [27]
  Nutsedge plant response rating: 0
[16]; [28]
  Plant response rating, Rice (0 to 10 scale, 0 is no effect, 10 is complete control): 0
[16]; [29]
  Rice plant response rating (0 to 10 scale, 0 is no effect, 10 is complete control): 0
[16]; [30]
  Rice plant response rating: 0
[16]; [31]
  Rice plant response rating: 0
[17]; [28]
  Plant response rating, S. Flatsedge (0 to 10 scale, 0 is no effect, 10 is complete control): 0
[17]; [29]
  S. Flatsedge plant response rating (0 to 10 scale, 0 is no effect, 10 is complete control): 0
[17]; [30]
  S. Flatsedge plant response rating: 0
[17]; [31]
  S. Flatsedge plant response rating: 0
[18]; [28]
  Plant response rating, Ducksalad (0 to 10 scale, 0 is no effect, 10 is complete control): 0
[18]; [29]
  Ducksalad plant response rating (0 to 10 scale, 0 is no effect, 10 is complete control): 0
[18]; [30]
  Ducksalad plant response rating: 0
[18]; [31]
  Ducksalad plant response rating: 0
[19]; [28]
  Plant response rating, Barnyardgrass (0 to 10 scale, 0 is no effect, 10 is complete control): 0
[19]; [29]
  Barnyardgrass plant response rating (0 to 10 scale, 0 is no effect, 10 is complete control): 0
[19]; [30]
  Barnyardgrass plant response rating: 0
[19]; [31]
  Barnyardgrass plant response rating: 0
